Assay results reported in patent US11464733B2, “Enema for rectal application” (Dr. Falk Pharma GmbH, priority 2016, dated 2022).

Assays:
acidophilic leucocyte = test: Same trial: hematology checks, leukocyte fractionation; type: in vivo, human
[1] = system: patients with active ulcerative colitis; test: Placebo-controlled double-blind trial: mucosal endoscopy, MMDAI endoscopic finding score; type: in vivo, human; conditions: for Number of subjects with MMDAI endoscopic finding score 0 / Number of subjects with MMDAI endoscopic finding score 1 / Number of subjects with MMDAI endoscopic finding score 2 / Number of subjects with MMDAI endoscopic finding score 3 / Percentage of subjects with MMDAI endoscopic finding score 0 / Percentage of subjects with MMDAI endoscopic finding score 1 / Percentage of subjects with MMDAI endoscopic finding score 2 / Percentage of subjects with MMDAI endoscopic finding score 3: 2 mg rectal foam twice a day, 20 cases
Procedure: Placebo-controlled randomized double-blind multicenter collaborative parallel group comparison test
(§1) Superiority of the budesonide compared with placebo for mucosal healing as the primary endpoint are investigated for patients with active ulcerative colitis when budesonide 2 mg is rectally administered twice a day for 6 weeks by a double-blind comparative study with placebo as a control, and the safety thereof was investigated.
(§2) Furthermore, the efficacy and safety of administering were investigated, to patients with inflammatory bowel disease who have been administered 1.5 to 2.5 mg of budesonide twice a day for 6 weeks and shown signs of healing but no mucous membrane healing, 1.5 to 2.5 mg of budesonide twice a day for an additional 6 weeks (for a total of 12 weeks) (clinical trial number: Japic CTI—142704).
For the trial, an aerosol with fixed dose injection type for rectal injection (rectal foaming agent) is used as a test drug, in which 25 mL (1.35 g) of white creamy foam containing 2 mg of budesonide is released by one injection. As a remission induction therapeutic agent of ulcerative colitis in active phase where the lesion is confined to the rectum and sigmoid colon, the aerosol for rectal injection is approved in Europe at a dosage and dose of budesonide 2 mg once a day (trade name: Budenofalk 2 mg/dose rectal foam, manufactured by Dr. Falk Pharma GmbH).
The subjects are ulcerative colitis patients in active phase, and are divided into a group administered the test drug twice a day (hereafter, the budesonide-administered group), and a group administered the control drug (hereinafter, the placebo group).
(§3) The test drug or control drug is rectally administered twice a day (once in the morning and once in the evening), after defecation, if possible. The number of injections per dose is one, the administration period is 6 weeks, if no mucous membrane healing occurred (an endoscope view score of 0 points), an administration period of 12 weeks can be used, and the drug is administered until the evening before the evaluation. The dose of budesonide in each group is 4 mg/day for the twice a day group, and 0 mg/day for the placebo group. The subjects with a 12-week administration period included 20 subjects in the budesonide administered group, and 18 subjects in the placebo group.
The score by the doctor was used for the initial test, and after an administration period of 6 weeks, whether the prescription was continued for 6 more weeks or not. The score by the central judgment committee was used as the judgement of effectiveness. […] Furthermore, the change of the endoscope finding score from 6th week to 12th week of each subject of placebo group is shown in Table 2, and the change in the endoscope finding score from 6th week to 12th week of each subject of the budesonide-administered group is shown in Table 3.

[2] = system: serous ACTH (adrenocorticotropic hormone); test: Same trial: blood biochemistry check, serous ACTH density; type: in vivo, human
[3] = system: patients with active ulcerative colitis; test: Same trial: safety, adverse events; type: in vivo, human
Procedure: as §1, §2, §3

serous cortisol = test: Same trial: blood biochemistry check, serous cortisol density; type: in vivo, human
[4] = cited from earlier work
[5] = 0 week (before administration), 12-week subjects
[6] = Table 3 total over 6th week scores, of 20
[7] = Table 3 total over 6th week scores, unmeasured listed separately, of 20
[8] = change from 6th to 12th week, 2 mg twice a day, of 20
[9] = 0th week (before prescription), 20 cases analysed
[10] = 12th week (prescription end), 19 cases analysed
[11] = After observation, 20 cases analysed

In the case of CCCC1O[C@@H]2C[C@H]3[C@@H]4CCC5=CC(=O)C=C[C@]5(C)[C@H]4[C@@H](O)C[C@]3(C)[C@]2(C(=O)CO)O1 (mixture of isomers) [Budesonide, (+)-[(RS)-16α,17α-Butylidenedioxy-11β,21-dihydroxy-1,4-pregnadiene-3,20-dione]], the “Percentage of the acidophilic leucocyte of leukocyte fractionation” value (acidophilic leucocyte; 4th week to 12th week compared with 0th week and placebo group) is reported as “decrease”, the “Other items of hematology and blood biochemistry checks” value (acidophilic leucocyte; in vivo) is reported as “no clear fluctuation in other items could be seen” and the “Number of subjects with MMDAI endoscopic finding score 0” value [1, 5] is reported as 0 subjects. For the same molecule, the “Number of subjects with MMDAI endoscopic finding score 1” value [1, 5] was 3 subjects, the “Number of subjects with MMDAI endoscopic finding score 2” value [1, 5] was 16 subjects and the “Number of subjects with MMDAI endoscopic finding score 3” value [1, 5] was 1 subjects. The “Percentage of subjects with MMDAI endoscopic finding score 0” value [1, 5] was “(0.0) %”, the “Percentage of subjects with MMDAI endoscopic finding score 1” value [1, 5] was “(15.0) %” and the “Percentage of subjects with MMDAI endoscopic finding score 2” value [1, 5] was “(80.0) %”. For the same molecule, the “Percentage of subjects with MMDAI endoscopic finding score 3” value [1, 5] was “(5.0) %”, the “Percentage with an endoscope view score of 0 in the 12th week, except for non-measured group” value ([1]; 6/15 examples, placebo 0% (0/13), administration continued for 6 more weeks) was 40.0% and the “Number of subjects with MMDAI endoscopic finding score 0” value ([1]; 6th week, 12-week subjects) was 4 subjects. The “Number of subjects with MMDAI endoscopic finding score 1” value ([1]; 6th week, 12-week subjects) was 14 subjects, the “Number of subjects with MMDAI endoscopic finding score 2” value ([1]; 6th week, 12-week subjects) was 2 subjects and the “Number of subjects with MMDAI endoscopic finding score 3” value ([1]; 6th week, 12-week subjects) was 0 subjects. The “Percentage of subjects with MMDAI endoscopic finding score 1” value ([1]; 6th week, 12-week subjects) was “(70.0) %”, the “Number of subjects with MMDAI endoscopic finding score 0” value ([1]; 12th week (Table 1)) was 6 subjects and the “Number of subjects with MMDAI endoscopic finding score 1” value ([1]; 12th week (Table 1)) was 8 subjects. The “Number of subjects with MMDAI endoscopic finding score 2” value ([1]; 12th week (Table 1)) was 6 subjects, the “Number of subjects with MMDAI endoscopic finding score 3” value ([1]; 12th week (Table 1)) was 0 subjects and the “Percentage of subjects with MMDAI endoscopic finding score 0” value ([1]; 12th week (Table 1)) was “(30.0) %”. For the same molecule, the “Percentage of subjects with MMDAI endoscopic finding score 1” value ([1]; 12th week (Table 1)) was “(40.0) %”, the “Percentage of subjects with MMDAI endoscopic finding score 2” value ([1]; 12th week (Table 1)) was “(30.0) %” and the “Percentage of subjects with MMDAI endoscopic finding score 3” value ([1]; 12th week (Table 1)) was “(0.0) %”. For the same molecule, the “Number of subjects, 12th week Unmeasured, Total” value [1, 6] was 5 subjects, the “Percentage of subjects, 12th week Unmeasured, Total” value [1, 6] was “(25.0) %” and the “Number of subjects, endoscope finding score 12th week 0, Total” value [1, 7] was 6 subjects. The “Number of subjects, endoscope finding score 12th week 1, Total” value [1, 7] was 7 subjects, the “Number of subjects, endoscope finding score 12th week 2, Total” value [1, 7] was 2 subjects and the “Number of subjects, endoscope finding score 12th week 3, Total” value [1, 7] was 0 subjects. For the same molecule, the “Percentage of subjects, endoscope finding score 12th week 0, Total” value [1, 7] was “(30.0) %”, the “Percentage of subjects, endoscope finding score 12th week 1, Total” value [1, 7] was “(35.0) %” and the “Percentage of subjects, endoscope finding score 12th week 2, Total” value [1, 7] was “(10.0) %”. The “Percentage of subjects, endoscope finding score 12th week 3, Total” value [1, 7] was “(0.0) %”, the “Number of subjects, endoscope finding score 6th week 0 / 12th week 0” value [1, 8] was 0 subjects and the “Number of subjects, endoscope finding score 6th week 0 / 12th week 1” value [1, 8] was 1 subjects. The “Number of subjects, endoscope finding score 6th week 0 / 12th week 2” value [1, 8] was 0 subjects, the “Number of subjects, endoscope finding score 6th week 0 / 12th week 3” value [1, 8] was 0 subjects and the “Number of subjects, endoscope finding score 6th week 0 / 12th week Unmeasured” value [1, 8] was 3 subjects. The “Number of subjects, endoscope finding score 6th week 1 / 12th week 0” value [1, 8] was 5 subjects, the “Number of subjects, endoscope finding score 6th week 1 / 12th week 1” value [1, 8] was 6 subjects and the “Number of subjects, endoscope finding score 6th week 1 / 12th week 2” value [1, 8] was 1 subjects. The “Number of subjects, endoscope finding score 6th week 1 / 12th week 3” value [1, 8] was 0 subjects, the “Number of subjects, endoscope finding score 6th week 1 / 12th week Unmeasured” value [1, 8] was 2 subjects and the “Number of subjects, endoscope finding score 6th week 2 / 12th week 0” value [1, 8] was 1 subjects. The “Number of subjects, endoscope finding score 6th week 2 / 12th week 1” value [1, 8] was 0 subjects, the “Number of subjects, endoscope finding score 6th week 2 / 12th week 2” value [1, 8] was 1 subjects and the “Number of subjects, endoscope finding score 6th week 2 / 12th week 3” value [1, 8] was 0 subjects. For the same molecule, the “Number of subjects, endoscope finding score 6th week 2 / 12th week Unmeasured” value [1, 8] was 0 subjects, the “Number of subjects, endoscope finding score 6th week 3 / 12th week 0” value [1, 8] was 0 subjects and the “Number of subjects, endoscope finding score 6th week 3 / 12th week 1” value [1, 8] was 0 subjects. For the same molecule, the “Number of subjects, endoscope finding score 6th week 3 / 12th week 2” value [1, 8] was 0 subjects, the “Number of subjects, endoscope finding score 6th week 3 / 12th week 3” value [1, 8] was 0 subjects and the “Number of subjects, endoscope finding score 6th week 3 / 12th week Unmeasured” value [1, 8] was 0 subjects. For the same molecule, the “Percentage of subjects, endoscope finding score 6th week 0 / 12th week 0” value [1, 8] was 0.0%, the “Percentage of subjects, endoscope finding score 6th week 0 / 12th week 1” value [1, 8] was 5.0% and the “Percentage of subjects, endoscope finding score 6th week 0 / 12th week 2” value [1, 8] was 0.0%. The “Percentage of subjects, endoscope finding score 6th week 0 / 12th week 3” value [1, 8] was 0.0%, the “Percentage of subjects, endoscope finding score 6th week 0 / 12th week Unmeasured” value [1, 8] was 15.0% and the “Percentage of subjects, endoscope finding score 6th week 1 / 12th week 1” value [1, 8] was “(30.0) %”. For the same molecule, the “Percentage of subjects, endoscope finding score 6th week 1 / 12th week 3” value [1, 8] was “(0.0) %”, the “Percentage of subjects, endoscope finding score 6th week 1 / 12th week Unmeasured” value [1, 8] was “(10.0) %” and the “Percentage of subjects, endoscope finding score 6th week 2 / 12th week 0” value [1, 8] was 5.0%. For the same molecule, the “Percentage of subjects, endoscope finding score 6th week 2 / 12th week 1” value [1, 8] was 0.0%, the “Percentage of subjects, endoscope finding score 6th week 2 / 12th week 2” value [1, 8] was 5.0% and the “Percentage of subjects, endoscope finding score 6th week 2 / 12th week 3” value [1, 8] was 0.0%. The “Percentage of subjects, endoscope finding score 6th week 2 / 12th week Unmeasured” value [1, 8] was 0.0%, the “Percentage of subjects, endoscope finding score 6th week 3 / 12th week 0” value [1, 8] was 0.0% and the “Percentage of subjects, endoscope finding score 6th week 3 / 12th week 1” value [1, 8] was 0.0%. The “Percentage of subjects, endoscope finding score 6th week 3 / 12th week 2” value [1, 8] was 0.0%, the “Percentage of subjects, endoscope finding score 6th week 3 / 12th week 3” value [1, 8] was 0.0% and the “Percentage of subjects, endoscope finding score 6th week 3 / 12th week Unmeasured” value [1, 8] was 0.0%. The “Serous ACTH: applicable examples (cases below standard value)” value (“Serous ACTH: applicable examples” below) [2, 9] was 3, the “Serous ACTH: percentage of cases below standard value” (from here on “Serous ACTH: percentage”) [2, 9] was 15.0% and the “Serous ACTH: applicable examples” value [2, 10] was 8. The “Serous ACTH: percentage” value [2, 10] was 42.1%, the “Serous ACTH: applicable examples” value [2, 11] was 2 and the “Serous ACTH: percentage” value [2, 11] was 10.0%. The “Death, severe adverse events or serious adverse event” value ([3]; 12 week administration) was “no death, severe adverse events or serious adverse event, were observed”, the Tolerability ([3]; budesonide 2 mg, rectal administration twice a day for 6 weeks (so in the source), patients of ulcerative colitis) was “acceptable” and the “Manifestation of adverse events as a result of the drug tested” value ([3]; versus placebo group) was “couldn't admit between Placebo group”. The “Manifested frequency of the adverse event” value ([3]; versus placebo group) was “higher than in the placebo group”, the “Serous cortisol: applicable examples (cases below standard value)” value (“Serous cortisol: applicable examples” below) (serous cortisol; [9]) was 0 and the “Serous cortisol: percentage of cases below standard value” (from here on “Serous cortisol: percentage”) (serous cortisol; [9]) was 0.0%. For the same molecule, the “Serous cortisol: percentage” value (serous cortisol; 0th week (before prescription), 20 cases analysed, listed as budesonide) was 0%, the Serous cortisol density (serous cortisol; 6th week and 12th week versus 0th week (before prescription)) was “low compared with the 0th week” and the “Serous cortisol: applicable examples” value (serous cortisol; [10]) was 11. The “Serous cortisol: percentage” value (serous cortisol; [10]) was 57.9%, the “Serous cortisol: applicable examples” value (serous cortisol; [11]) was 2 and the “Serous cortisol: percentage” value (serous cortisol; [11]) was 10.0%. The “Recovery of subjects with both serous cortisol and serous ACTH density below the standard value in the 12th week” value (serous cortisol; by the after observation) was “mostly recovered to within the standard value”, the “Serous cortisol density after end of administration” value (serous cortisol; observed for 2-4 weeks after the end of the 12-week administration period) was “reverting to the value in the 0th week” and the Solubility in water [4] was “low solubility in water”.
